Assay results published in ChEMBL document CHEMBL1201862, “PubChem BioAssay data set” (2004).
Activity calls are given as the source filed them.

Tests used:
[1] = biological target: T1, Carboxy-terminal domain RNA polymerase II polypeptide A small phosphatase 1 (Homo sapiens, UniProt Q9GZU7); assay: CTDSP1 inhibitors, concentration-response, biochemical, absorbance readout, ultra-high-throughput screen actives (AID 540297); format: functional
T1 sequence (Q9GZU7 whole entry): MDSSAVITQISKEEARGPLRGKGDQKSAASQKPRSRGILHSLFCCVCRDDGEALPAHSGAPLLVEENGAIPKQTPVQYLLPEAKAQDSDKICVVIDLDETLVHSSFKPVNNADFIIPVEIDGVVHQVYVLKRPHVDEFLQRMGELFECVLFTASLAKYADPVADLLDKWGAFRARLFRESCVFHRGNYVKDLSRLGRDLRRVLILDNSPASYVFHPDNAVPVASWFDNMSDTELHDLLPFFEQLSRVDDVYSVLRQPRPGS

Aminopeptidase N = biological target: T2, Aminopeptidase N (Plasmodium falciparum FcB1/Columbia, UniProt O96935); assay: malaria alanyl aminopeptidase activity blockers – biochemical, fluorogenic H-Leu-NHMec substrate, 1536-well (AID 1445); set-up: species or system Plasmodium falciparum 3D7, 3D7
T2 sequence (O96935 whole entry): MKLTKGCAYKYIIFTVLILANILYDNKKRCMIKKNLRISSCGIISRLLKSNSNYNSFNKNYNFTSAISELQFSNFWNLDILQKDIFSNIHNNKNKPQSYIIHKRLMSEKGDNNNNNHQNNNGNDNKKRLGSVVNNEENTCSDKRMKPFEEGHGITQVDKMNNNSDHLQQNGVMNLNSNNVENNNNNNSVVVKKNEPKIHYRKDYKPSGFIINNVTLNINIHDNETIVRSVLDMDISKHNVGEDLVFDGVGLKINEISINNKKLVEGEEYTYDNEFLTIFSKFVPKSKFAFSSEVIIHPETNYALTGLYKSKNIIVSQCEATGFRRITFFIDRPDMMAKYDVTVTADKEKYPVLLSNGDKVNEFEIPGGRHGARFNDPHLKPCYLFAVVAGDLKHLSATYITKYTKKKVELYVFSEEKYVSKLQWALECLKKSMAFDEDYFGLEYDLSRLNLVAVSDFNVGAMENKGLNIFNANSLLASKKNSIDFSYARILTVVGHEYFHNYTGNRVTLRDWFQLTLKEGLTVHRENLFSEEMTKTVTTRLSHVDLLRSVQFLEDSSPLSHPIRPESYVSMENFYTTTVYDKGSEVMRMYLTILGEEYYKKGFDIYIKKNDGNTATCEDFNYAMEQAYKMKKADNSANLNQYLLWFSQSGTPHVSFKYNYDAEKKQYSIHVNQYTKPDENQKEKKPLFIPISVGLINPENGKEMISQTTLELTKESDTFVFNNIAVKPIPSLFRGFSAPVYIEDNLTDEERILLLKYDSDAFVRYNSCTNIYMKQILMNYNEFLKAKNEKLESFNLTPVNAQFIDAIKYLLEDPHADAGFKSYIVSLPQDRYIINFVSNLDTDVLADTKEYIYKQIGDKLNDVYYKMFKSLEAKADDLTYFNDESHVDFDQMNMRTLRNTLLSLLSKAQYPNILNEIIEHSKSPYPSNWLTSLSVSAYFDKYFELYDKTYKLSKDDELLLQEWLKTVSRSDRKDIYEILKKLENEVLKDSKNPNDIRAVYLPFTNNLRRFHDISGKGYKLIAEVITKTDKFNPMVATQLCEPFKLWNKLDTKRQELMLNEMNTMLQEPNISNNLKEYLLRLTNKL

[2] = DRD fibroblast viability loss – cell-based, non-viral oncogenic, luminescence, dose response (AID 1934); format: functional; conditions: Homo sapiens
BJ [3] = assay: BJ-TERT-LT-ST fibroblast viability loss – cell-based, RAS-independent, luminescence, dose response (AID 1935); format: functional; conditions: Homo sapiens;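 further: BJ fibroblasts immortalized with TERT plus LT and ST oncogenes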
Protein RecA = biological target: T3, Protein RecA (Mycobacterium tuberculosis, UniProt P9WHJ3); assay: Fluorescence Cell-Free Homogeneous Dose Retest to Identify Inhibitors of RecA-Intein Splicing Activity. [Related pubchem assays (depositor defined):AID2097, AID2223, AID489010, AID492950]; format: functional
T3 sequence (P9WHJ3 whole entry): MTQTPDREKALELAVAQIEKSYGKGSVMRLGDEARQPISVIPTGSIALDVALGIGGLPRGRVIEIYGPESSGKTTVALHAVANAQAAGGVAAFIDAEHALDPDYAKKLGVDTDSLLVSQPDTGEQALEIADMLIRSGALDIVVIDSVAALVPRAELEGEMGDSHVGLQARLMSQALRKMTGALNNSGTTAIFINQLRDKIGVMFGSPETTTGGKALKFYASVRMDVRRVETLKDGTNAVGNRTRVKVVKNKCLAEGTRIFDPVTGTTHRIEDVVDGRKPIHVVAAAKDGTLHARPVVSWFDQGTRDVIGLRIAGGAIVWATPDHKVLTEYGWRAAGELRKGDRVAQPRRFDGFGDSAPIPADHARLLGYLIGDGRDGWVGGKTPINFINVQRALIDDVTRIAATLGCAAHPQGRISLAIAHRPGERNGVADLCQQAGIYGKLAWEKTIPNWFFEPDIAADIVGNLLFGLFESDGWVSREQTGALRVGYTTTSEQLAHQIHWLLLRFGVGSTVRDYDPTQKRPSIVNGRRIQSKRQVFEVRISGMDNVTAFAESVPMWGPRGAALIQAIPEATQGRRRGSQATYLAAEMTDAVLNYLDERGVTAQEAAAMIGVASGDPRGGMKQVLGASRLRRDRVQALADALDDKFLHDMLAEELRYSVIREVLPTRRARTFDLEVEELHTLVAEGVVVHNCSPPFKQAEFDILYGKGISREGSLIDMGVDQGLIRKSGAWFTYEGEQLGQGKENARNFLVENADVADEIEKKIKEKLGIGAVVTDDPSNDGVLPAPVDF

BJ [4] = assay: cells; format: functional, cell-based; conditions: Homo sapiens
BJ [5] = assay: BJ-TERT fibroblast viability loss – cell-based, RAS-independent, luminescence, dose response (AID 1933); format: functional; conditions: Homo sapiens
[6] = biological target: T4, Replicative DNA helicase DnaB (Mycobacterium tuberculosis, UniProt P9WMR3); assay: DnaB intein splicing inhibitors, dose response, biochemical, cell-free fluorescence (AID 449749); format: functional
T4 sequence (P9WMR3 whole entry): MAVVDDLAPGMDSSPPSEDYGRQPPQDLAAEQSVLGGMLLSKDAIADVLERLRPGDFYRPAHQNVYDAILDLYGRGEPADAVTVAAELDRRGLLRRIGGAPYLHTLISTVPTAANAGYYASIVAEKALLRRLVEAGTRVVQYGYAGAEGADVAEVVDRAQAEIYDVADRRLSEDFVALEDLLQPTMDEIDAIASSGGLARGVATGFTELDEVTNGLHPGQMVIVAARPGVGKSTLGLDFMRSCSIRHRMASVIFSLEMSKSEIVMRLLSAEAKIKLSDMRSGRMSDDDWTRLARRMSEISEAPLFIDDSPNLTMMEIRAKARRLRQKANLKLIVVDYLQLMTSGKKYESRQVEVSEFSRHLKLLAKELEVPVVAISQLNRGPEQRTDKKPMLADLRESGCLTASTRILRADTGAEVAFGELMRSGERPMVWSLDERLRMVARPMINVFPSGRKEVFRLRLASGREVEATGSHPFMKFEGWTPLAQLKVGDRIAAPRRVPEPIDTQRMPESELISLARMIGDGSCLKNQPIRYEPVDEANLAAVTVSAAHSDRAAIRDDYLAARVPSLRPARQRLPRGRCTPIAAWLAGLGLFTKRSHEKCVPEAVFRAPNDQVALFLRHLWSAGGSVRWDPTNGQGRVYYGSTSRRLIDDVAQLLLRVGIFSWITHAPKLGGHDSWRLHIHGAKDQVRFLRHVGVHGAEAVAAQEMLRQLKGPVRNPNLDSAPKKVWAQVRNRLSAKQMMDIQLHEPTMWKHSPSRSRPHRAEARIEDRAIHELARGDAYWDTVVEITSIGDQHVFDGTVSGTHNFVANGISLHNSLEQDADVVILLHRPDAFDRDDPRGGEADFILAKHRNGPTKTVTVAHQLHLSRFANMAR

[7] = biological target: Glyceraldehyde-3-phosphate dehydrogenase (Homo sapiens, UniProt P04406)
Sequence of Glyceraldehyde-3-phosphate dehydrogenase (P04406 whole entry): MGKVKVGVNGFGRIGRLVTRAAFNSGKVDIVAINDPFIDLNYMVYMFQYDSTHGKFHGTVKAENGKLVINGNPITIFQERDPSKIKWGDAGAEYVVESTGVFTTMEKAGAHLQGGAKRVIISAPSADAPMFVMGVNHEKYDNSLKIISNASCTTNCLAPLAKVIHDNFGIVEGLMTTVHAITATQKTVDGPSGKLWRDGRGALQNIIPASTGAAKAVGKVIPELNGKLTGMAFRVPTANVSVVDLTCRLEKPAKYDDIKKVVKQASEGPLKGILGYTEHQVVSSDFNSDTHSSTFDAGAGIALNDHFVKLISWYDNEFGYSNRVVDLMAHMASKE

[8] = biological target: T5, Short transient receptor potential channel 4 (Mus musculus, UniProt Q9QUQ5); assay: calcium entry via TRPC4 opening agents – cell-based, HEK293 TRPC4/mu-opioid, Fluo-4 calcium, dose response (AID 434937); format: functional
T5 sequence (Q9QUQ5 whole entry): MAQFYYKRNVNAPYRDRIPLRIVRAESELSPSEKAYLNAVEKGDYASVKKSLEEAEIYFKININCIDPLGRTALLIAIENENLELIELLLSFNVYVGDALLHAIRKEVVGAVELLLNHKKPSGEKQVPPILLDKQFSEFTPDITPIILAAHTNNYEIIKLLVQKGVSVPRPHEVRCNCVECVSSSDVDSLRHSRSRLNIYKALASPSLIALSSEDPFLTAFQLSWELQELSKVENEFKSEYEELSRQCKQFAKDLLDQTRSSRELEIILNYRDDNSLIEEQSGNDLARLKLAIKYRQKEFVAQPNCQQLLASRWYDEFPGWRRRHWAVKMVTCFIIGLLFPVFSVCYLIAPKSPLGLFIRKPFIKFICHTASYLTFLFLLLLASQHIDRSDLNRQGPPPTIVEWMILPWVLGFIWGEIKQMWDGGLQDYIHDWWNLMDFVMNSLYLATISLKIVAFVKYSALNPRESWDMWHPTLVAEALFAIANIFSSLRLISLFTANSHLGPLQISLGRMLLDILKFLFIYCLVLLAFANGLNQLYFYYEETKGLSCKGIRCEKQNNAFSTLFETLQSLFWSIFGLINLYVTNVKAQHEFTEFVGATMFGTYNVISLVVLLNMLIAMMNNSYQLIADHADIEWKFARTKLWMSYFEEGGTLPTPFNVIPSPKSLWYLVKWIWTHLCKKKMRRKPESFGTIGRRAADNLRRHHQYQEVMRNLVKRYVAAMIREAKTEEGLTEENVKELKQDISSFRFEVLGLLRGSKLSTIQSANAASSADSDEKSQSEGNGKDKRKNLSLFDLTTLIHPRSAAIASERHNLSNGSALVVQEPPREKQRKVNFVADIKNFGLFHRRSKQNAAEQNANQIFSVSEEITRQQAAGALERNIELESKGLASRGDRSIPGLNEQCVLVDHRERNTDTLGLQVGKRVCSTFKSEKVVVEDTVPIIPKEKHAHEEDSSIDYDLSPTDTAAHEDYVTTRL

Large T antigen = Large T antigen (Simian virus 40, UniProt P03070); format: functional, Betapolyomavirus macacae;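 further: Confirmatory-stage PubChem screen for compounds that inhibit SV40 T antigen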
Sequence of Large T antigen (P03070 whole entry): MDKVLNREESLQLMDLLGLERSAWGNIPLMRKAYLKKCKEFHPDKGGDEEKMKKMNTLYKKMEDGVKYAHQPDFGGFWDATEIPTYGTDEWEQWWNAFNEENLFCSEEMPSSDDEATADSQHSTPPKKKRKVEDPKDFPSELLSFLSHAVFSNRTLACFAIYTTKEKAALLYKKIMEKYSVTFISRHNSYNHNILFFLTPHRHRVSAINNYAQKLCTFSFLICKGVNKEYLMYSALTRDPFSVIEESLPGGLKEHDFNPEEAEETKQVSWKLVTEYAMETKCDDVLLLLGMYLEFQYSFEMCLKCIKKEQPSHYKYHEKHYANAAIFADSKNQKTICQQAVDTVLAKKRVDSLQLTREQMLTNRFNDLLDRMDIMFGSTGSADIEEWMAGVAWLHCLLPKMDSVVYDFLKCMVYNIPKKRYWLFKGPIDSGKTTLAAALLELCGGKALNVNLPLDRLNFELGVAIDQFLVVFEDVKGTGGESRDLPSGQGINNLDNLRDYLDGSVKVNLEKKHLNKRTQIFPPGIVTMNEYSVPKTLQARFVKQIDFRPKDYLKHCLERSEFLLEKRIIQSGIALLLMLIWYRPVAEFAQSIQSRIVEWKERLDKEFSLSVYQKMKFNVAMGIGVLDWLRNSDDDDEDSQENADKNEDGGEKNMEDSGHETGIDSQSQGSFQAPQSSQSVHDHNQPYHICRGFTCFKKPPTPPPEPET

[9] = biological target: DNA dC->dU-editing enzyme APOBEC-3G (Homo sapiens, UniProt Q9HC16); assay: Dose Response confirmation of small molecule APOBEC3G DNA Deaminase Inhibitors via a fluorescence-based single-stranded DNA deaminase assay. [Related pubchem assays (depositor defined):AID493012, AID493028]; format: functional
Sequence of DNA dC->dU-editing enzyme APOBEC-3G (Q9HC16 whole entry): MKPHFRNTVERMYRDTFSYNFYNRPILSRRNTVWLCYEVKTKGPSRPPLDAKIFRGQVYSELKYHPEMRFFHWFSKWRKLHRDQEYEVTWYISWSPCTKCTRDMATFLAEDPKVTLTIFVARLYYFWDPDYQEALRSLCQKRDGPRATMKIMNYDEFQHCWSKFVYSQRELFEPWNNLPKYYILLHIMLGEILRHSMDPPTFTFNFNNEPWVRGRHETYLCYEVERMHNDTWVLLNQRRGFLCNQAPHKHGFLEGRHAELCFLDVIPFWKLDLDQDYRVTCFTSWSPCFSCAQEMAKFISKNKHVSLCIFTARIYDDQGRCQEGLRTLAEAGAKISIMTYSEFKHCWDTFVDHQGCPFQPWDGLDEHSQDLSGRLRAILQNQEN

Fatty acid synthase = Fatty acid synthase (Homo sapiens, UniProt P49327); assay: inhibition of human FAS-TE enzyme activity – biochemical, kinetic fluorescence intensity, dose response (AID 624326); format: functional;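 further: rate of fluorescence rise from hydrolysis of a fluorogenic O-methyl fluorescein ester substrate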
Sequence of Fatty acid synthase (P49327 whole entry): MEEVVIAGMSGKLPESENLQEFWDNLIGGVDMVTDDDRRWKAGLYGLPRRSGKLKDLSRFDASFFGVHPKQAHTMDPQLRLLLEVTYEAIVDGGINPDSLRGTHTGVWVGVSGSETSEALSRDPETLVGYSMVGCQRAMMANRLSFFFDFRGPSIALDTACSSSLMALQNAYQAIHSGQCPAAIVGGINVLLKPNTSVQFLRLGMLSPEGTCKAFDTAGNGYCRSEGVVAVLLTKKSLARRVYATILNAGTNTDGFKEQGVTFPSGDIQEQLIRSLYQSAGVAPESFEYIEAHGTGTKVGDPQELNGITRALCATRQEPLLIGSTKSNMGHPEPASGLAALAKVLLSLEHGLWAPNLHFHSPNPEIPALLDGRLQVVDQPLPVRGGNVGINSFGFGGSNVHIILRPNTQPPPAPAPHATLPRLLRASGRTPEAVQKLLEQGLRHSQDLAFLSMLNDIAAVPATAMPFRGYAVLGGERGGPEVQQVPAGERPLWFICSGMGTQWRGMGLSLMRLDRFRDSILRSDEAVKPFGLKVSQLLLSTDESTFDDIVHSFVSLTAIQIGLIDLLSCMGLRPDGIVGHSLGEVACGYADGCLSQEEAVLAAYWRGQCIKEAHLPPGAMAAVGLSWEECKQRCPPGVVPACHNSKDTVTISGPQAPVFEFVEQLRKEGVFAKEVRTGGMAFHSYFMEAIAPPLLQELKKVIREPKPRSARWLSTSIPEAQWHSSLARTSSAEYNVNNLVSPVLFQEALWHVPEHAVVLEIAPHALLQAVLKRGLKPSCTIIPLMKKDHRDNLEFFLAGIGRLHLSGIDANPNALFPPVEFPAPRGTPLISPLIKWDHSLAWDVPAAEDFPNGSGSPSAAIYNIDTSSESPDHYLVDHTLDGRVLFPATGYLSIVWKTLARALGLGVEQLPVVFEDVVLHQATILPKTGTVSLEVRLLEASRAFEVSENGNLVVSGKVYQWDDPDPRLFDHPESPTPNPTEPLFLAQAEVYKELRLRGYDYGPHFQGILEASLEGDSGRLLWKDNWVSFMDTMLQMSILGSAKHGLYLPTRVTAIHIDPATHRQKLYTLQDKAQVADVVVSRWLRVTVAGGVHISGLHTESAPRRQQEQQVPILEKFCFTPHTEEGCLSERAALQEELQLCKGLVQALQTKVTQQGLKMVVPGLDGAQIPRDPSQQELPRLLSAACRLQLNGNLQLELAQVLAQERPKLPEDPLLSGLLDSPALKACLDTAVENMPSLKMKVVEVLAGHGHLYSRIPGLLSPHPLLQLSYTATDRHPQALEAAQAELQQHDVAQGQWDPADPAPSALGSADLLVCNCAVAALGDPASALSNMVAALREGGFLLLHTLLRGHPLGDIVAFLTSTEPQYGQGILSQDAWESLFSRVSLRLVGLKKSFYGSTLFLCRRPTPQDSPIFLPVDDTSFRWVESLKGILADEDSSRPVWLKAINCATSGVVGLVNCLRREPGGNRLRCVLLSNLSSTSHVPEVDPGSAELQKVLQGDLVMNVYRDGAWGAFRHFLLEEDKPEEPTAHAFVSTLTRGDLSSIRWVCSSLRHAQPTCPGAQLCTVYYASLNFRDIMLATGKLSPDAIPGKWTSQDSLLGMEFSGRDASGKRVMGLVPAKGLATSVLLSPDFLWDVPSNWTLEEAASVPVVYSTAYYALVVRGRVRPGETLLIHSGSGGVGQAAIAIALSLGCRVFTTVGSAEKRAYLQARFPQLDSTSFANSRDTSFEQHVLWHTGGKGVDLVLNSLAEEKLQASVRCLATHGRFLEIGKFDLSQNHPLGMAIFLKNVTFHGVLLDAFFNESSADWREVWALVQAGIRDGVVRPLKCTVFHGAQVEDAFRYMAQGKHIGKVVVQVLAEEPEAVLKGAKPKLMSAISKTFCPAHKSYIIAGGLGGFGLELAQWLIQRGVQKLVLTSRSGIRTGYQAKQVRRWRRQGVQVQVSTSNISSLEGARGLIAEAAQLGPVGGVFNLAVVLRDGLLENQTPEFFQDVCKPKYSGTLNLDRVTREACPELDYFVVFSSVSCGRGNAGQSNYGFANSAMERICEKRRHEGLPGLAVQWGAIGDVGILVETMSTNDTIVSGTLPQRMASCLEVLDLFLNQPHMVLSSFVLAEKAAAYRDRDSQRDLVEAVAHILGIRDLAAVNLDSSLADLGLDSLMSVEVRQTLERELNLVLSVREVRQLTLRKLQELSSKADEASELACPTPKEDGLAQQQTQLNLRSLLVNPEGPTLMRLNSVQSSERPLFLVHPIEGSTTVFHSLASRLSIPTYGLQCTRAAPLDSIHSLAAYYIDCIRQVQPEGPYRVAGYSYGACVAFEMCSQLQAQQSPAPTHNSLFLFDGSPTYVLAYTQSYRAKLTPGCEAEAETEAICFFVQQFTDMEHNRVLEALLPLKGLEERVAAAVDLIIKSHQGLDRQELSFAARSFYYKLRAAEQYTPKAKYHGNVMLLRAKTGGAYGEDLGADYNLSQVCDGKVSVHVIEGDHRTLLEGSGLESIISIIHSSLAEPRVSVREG

cells = format: functional
[10] = THP-1 cell cytotoxicity, dose response, cytotoxicity control for non-replicating M. tuberculosis project (AID 489025); format: functional
[11] = microbe, parasite or virus in culture; format: functional; conditions: Mycobacterium tuberculosis

## c1ccc(-c2cc(-c3nn4c(-c5ccco5)nnc4s3)c3ccccc3n2)cc1
[1]
  IC50: 16.6 µM (active)

## CC(=O)NC(=S)NNC(=O)COc1ccc(Br)cc1
Aminopeptidase N
  IC50: 2.57 µM (active)

## O=C(NC1CCCC1)C(c1ccc(F)cc1)N(Cc1ccccc1Cl)C(=O)CCl (stereo not given)
[2]
  EC50: 8.7 µM (active)
BJ [3]
  EC50: > 150 µM (inconclusive)
Protein RecA
  EC50: 0.215 µM (active)
BJ [4]
  EC50: 14.8 µM (active)
BJ [5]
  EC50: 5.5 µM (active)
[6]
  AC50: > 380 µM (inactive)

## O=C(O)c1cc(NS(=O)(=O)c2cccc3cccnc23)ccc1O
[7]
  IC50: > 100 µM (not active)

## Cc1ccc(C2N(c3ccc(Cl)c(Cl)c3)C(=O)C3CCCN32)o1 (stereo not given)
[8]
  EC50: 4.22 µM (active)

## O=C(NCc1cccs1)C1CCN(S(=O)(=O)c2ccccc2F)CC1
Aminopeptidase N
  IC50: 51 µM (active)

## Cc1ccc(N2C(=O)NC(=O)/C(=C/c3ccc(-c4ccc(C(=O)O)c(Cl)c4)o3)C2=O)cc1
[1]
  IC50: 5.49 µM (active)
Large T antigen
  IC50: 32.7 µM (active)

## CCOC(=O)C1(CCc2ccccc2)CCN(Cc2c(O)cccc2OC)CC1
[8]
  EC50: 0.299 µM (active)

## CCCC(C)c1nnc(NC(=O)c2cc(C(=O)OC)cc([N+](=O)[O-])c2)s1 (stereo not given)
[9]
  IC50: 19.6 µM (active)
Fatty acid synthase
  IC50: 7.04 µM (active)

## Oc1nc(-c2ccncc2)nc2ccccc12
[9]
  IC50: 44.8 µM (active)

## Cc1noc(NS(=O)(=O)c2ccc(NC(=O)CSc3nnc(-c4ccccc4)n3C3CCCCC3)cc2)c1C
Aminopeptidase N
  IC50: 75.9 µM (active)

## CC(C)(C)NC(=O)C(=O)NNC(=O)COc1ccc(Br)cc1
Aminopeptidase N
  IC50: 619 µM (active)
cells
  IC50: 17.9 µM (active)

## Cc1csc(NC(=O)CSCC(=O)O)c1-c1nc2ccccc2s1
Aminopeptidase N
  IC50: 7.09 µM (active)

## C=C1CCC[C@]2(C)C[C@H]3OC(=O)C(CNC(C)CCCC(C)C)[C@H]3CC12 (stereo not given in full)
[10]
  CC50: 22.1 µM (active)
[11]
  CC50: 27 µM (active)
cells
  IC50: 30.6 µM (active)

## S=C(NCCc1c[nH]cn1)NC1CCCC1
[8]
  EC50: 0.084 µM (active)

## COc1ccc(-c2nc(CN3CCC(C(=O)NC4CCCC4)CC3)c(C)o2)cc1OC
[8]
  EC50: 0.473 µM (active)

## c1ccc2oc(N3CCNCC3)nc2c1
[8]
  EC50: 0.668 µM (active)

## O=C(N/N=C/c1ccc(OCCCF)cc1)c1ccc(C(F)(F)F)cc1
[1]
  IC50: 13.2 µM (active)

## O=C(NCCCO)c1cc(-c2ccc(Cl)cc2Cl)n[nH]1
[7]
  IC50: > 10 µM (inconclusive)

## CN(C)/C=C/C=C1C(=O)CCCC1=O
[1]
  IC50: 7.28 µM (active)
